From PubChem BioAssay AID228 (DTP/NCI, 2004)
“And” between values parts separate entries of the source, which are not always exact repeats. Equal entries are not always repeated. Results filed as inconclusive are left out.

Test system: BDF1 mice, Friend leukemia sc, tumor weight T/C
Assay: NCI In Vivo Anticancer Drug Screen. Data for tumor model Friend Virus Leukemia (Solid) (subcutaneous) in B6D2F1 (BDF1) mice
Conditions: endpoint: mean tumor weight, higher = larger tumour
Description: The antitumor activity of compounds was measured in mice bearing transplantable tumors. Survival or tumor size were measured and the results are expressed as the measurement made in the treated group (T) divided by the measurement made in the vehicle treated control group (C). The tumor model used in this assay is Friend Virus Leukemia (Solid) (subcutaneous) in B6D2F1 (BDF1) mice

[1] = dose: 15.0 mg/kg/injection, schedule: Q01DX011 (ip), vehicle: carboxymethylcellulose (CMC)

## c1ncc2[nH]cnc2n1
dose: 27.5 mg/kg/injection, schedule: Q01DX011 (ip), vehicle: carboxymethylcellulose (CMC)
  T/C: 104 % of control
dose: 55.0 mg/kg/injection, schedule: Q01DX011 (ip), vehicle: carboxymethylcellulose (CMC)
  T/C: 87 % of control
dose: 110.0 mg/kg/injection, schedule: Q01DX011 (ip), vehicle: carboxymethylcellulose (CMC)
  T/C: 81 % of control
dose: 219.0 mg/kg/injection, schedule: Q01DX011 (ip), vehicle: carboxymethylcellulose (CMC)
  T/C: 43 % of control

## CCCn1cnc2c(SCc3ccccc3Cl)nc(N)nc21
dose: 50.0 mg/kg/injection, schedule: Q01DX011 (ip), vehicle: carboxymethylcellulose (CMC)
  T/C: 57 % of control
dose: 100.0 mg/kg/injection, schedule: Q01DX011 (ip), vehicle: carboxymethylcellulose (CMC)
  T/C: 41 % of control
dose: 200.0 mg/kg/injection, schedule: Q01DX011 (ip), vehicle: carboxymethylcellulose (CMC)
  T/C: 12 % of control
dose: 400.0 mg/kg/injection, schedule: Q01DX011 (ip), vehicle: carboxymethylcellulose (CMC)
  T/C: 5 % of control

## CC/C(=C(/CC)c1ccc(O)cc1)c1ccc(O)cc1
dose: 6.5 mg/kg/injection, schedule: Q01DX011 (sc), vehicle: steriod suspending solution
  T/C: 171 % of control and 244 % of control
dose: 13.0 mg/kg/injection, schedule: Q01DX011 (sc), vehicle: steriod suspending solution
  T/C: 169 % of control
dose: 26.0 mg/kg/injection, schedule: Q01DX011 (sc), vehicle: steriod suspending solution
  T/C: 119 % of control and 121 % of control
dose: 52.0 mg/kg/injection, schedule: Q01DX011 (sc), vehicle: steriod suspending solution
  T/C: 83 % of control

## O=C1C(=O)C(Cl)=C(Cl)C(Cl)=C1Cl
[1]
  T/C: 108 % of control
dose: 30.0 mg/kg/injection, schedule: Q01DX011 (ip), vehicle: carboxymethylcellulose (CMC)
  T/C: 90 % of control
dose: 60.0 mg/kg/injection, schedule: Q01DX011 (ip), vehicle: carboxymethylcellulose (CMC)
  T/C: 89 % of control

## C[C@H]1C(=O)O[C@@H]2CCN3CC=C(COC(=O)[C@](C)(O)[C@@]1(C)O)[C@H]23
dose: 31.0 mg/kg/injection, schedule: Q01DX011 (ip), vehicle: carboxymethylcellulose (CMC)
  T/C: 95 % of control
dose: 62.5 mg/kg/injection, schedule: Q01DX011 (ip), vehicle: carboxymethylcellulose (CMC)
  T/C: 61 % of control
dose: 125.0 mg/kg/injection, schedule: Q01DX011 (ip), vehicle: carboxymethylcellulose (CMC)
  T/C: 66 % of control
dose: 250.0 mg/kg/injection, schedule: Q01DX011 (ip), vehicle: carboxymethylcellulose (CMC)
  T/C: 38 % of control

## CCCCCCCCCCCC[n+]1c(C)cc(N)c2ccccc21
dose: 0.1 mg/kg/injection, schedule: Q01DX011 (ip), vehicle: carboxymethylcellulose (CMC)
  T/C: 182 % of control

## CCCCn1cnc2c(=S)nc(N)[nH]c21
dose: 0.25 mg/kg/injection, schedule: Q01DX011 (ip), vehicle: carboxymethylcellulose (CMC)
  T/C: 87 % of control
dose: 0.5 mg/kg/injection, schedule: Q01DX011 (ip), vehicle: carboxymethylcellulose (CMC)
  T/C: 53 % of control
dose: 1.0 mg/kg/injection, schedule: Q01DX011 (ip), vehicle: carboxymethylcellulose (CMC)
  T/C: 32 % of control and 40 % of control
dose: 3.0 mg/kg/injection, schedule: Q01DX011 (ip), vehicle: carboxymethylcellulose (CMC)
  T/C: 6 % of control and 7 % of control
dose: 7.0 mg/kg/injection, schedule: Q01DX011 (ip), vehicle: carboxymethylcellulose (CMC)
  T/C: 12 % of control
[1]
  T/C: 9 % of control

## O=P(c1ccccc1)(N1CC1)N1CC1
dose: 6.0 mg/kg/injection, schedule: Q01DX011 (ip), vehicle: saline
  T/C: 106 % of control
dose: 12.0 mg/kg/injection, schedule: Q01DX011 (ip), vehicle: saline
  T/C: 124 % of control
dose: 24.0 mg/kg/injection, schedule: Q01DX011 (ip), vehicle: saline
  T/C: 80 % of control

## CNS(=O)(=O)c1ncnc2nc[nH]c12
dose: 20.0 mg/kg/injection, schedule: Q01DX011 (ip), vehicle: carboxymethylcellulose (CMC)
  T/C: 94 % of control
dose: 26.0 mg/kg/injection, schedule: Q01DX011 (ip), vehicle: carboxymethylcellulose (CMC)
  T/C: 86 % of control
dose: 35.0 mg/kg/injection, schedule: Q01DX011 (ip), vehicle: carboxymethylcellulose (CMC)
  T/C: 96 % of control
dose: 70.62 mg/kg/injection, schedule: Q01DX011 (ip), vehicle: carboxymethylcellulose (CMC)
  T/C: 43 % of control
dose: 107.0 mg/kg/injection, schedule: Q01DX011 (ip), vehicle: carboxymethylcellulose (CMC)
  T/C: 49 % of control

## CCN(CC)CCN1C(=O)c2cccc3cccc(c23)C1=O
dose: 25.0 mg/kg/injection, schedule: Q01DX011 (ip), vehicle: saline
  T/C: 106 % of control
dose: 50.0 mg/kg/injection, schedule: Q01DX011 (ip), vehicle: saline
  T/C: 72 % of control
dose: 100.0 mg/kg/injection, schedule: Q01DX011 (ip), vehicle: saline
  T/C: 85 % of control
